Where “and” joins values, the source holds several entries; their conditions need not be identical. Identical values can stand only once.
Experiments:
5-HT2C = 5-HT2C (Homo sapiens (Human), UniProt P28335); experiment: 5-HT2C binding assay ([3H]-Mesulergine, HEK293 membranes)
Description: 5-HT2C Binding Assay Protocol
The testing compounds were diluted with DMSO, starting at 2 mM, with 8-points and 5-fold serial dilutions.
1 μL of a compound of the present disclosure the reference compound (Table J) was transferred to an assay plate. […] 1 μL of DMSO was transferred to an assay plate according to the plate map for total binding (High control: HC).
(§1) Unifilter-96 GF/C filter plates were soaked with 50 μL of 0.3% PEI per well for about 0.5 hours at room temperature. When the binding assays were complete, the reaction mixture was filtered through the GF/C filter plates using Perkin Elmer Filtermate Harvester, and each plate was washed 4 times with cold wash buffer. The filter plates were dried for 1 hour at 50° C. After drying, the bottom of the filter plate wells were sealed using Perkin Elmer Unifilter-96 backing seal tape. 50 μL of Perkin Elmer Microscint 20 cocktail was added. The top of the filter plates were sealed with Perkin Elmer TopSeal-A sealing film.
(§2) ^3H trapped on filters were counted using Perkin Elmer MicroBeta2 Reader. Inhibition constants were calculated using the following equation:
[formula] The data was analyzed using Prism 5. The model used was “log(inhibitor) vs. response—Variable slope” to fit the data and calculate IC50. The IC50 was then converted to Ki using the following equation: Ki=IC50/(1+L/Kd), wherein L is the radioligand concentration in the reaction system; Kd is the affinity of radioligand to the receptor.

D2 = D2 (Homo sapiens (Human), UniProt P14416); experiment: D2 binding assay ([3H] 7-OH-DPAT, HEK293 D2L membranes); details: numeric values
Sequence of D2 (P14416 whole entry): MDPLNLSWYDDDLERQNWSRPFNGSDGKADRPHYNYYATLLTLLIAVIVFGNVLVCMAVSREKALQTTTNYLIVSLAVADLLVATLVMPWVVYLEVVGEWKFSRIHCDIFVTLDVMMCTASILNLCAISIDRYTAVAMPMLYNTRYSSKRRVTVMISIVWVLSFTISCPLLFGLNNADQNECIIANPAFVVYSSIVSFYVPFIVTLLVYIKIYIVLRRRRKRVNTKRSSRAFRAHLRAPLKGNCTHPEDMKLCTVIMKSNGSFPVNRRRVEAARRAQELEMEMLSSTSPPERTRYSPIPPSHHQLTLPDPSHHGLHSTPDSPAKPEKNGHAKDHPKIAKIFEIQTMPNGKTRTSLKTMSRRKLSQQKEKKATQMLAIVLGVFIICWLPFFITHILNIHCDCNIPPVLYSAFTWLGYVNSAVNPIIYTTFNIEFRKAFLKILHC
Description: D2 Binding Assay Protocol
The testing compounds were diluted with DMSO, starting at 2 mM, with 8-points and 5-fold serial dilutions. droperidol was diluted with DMSO, starting at 0.2 mM, with 8-points and 4-fold serial dilutions.
1 μL of a compound of the present disclosure and the reference compound (Table O) was transferred to an assay plate. 1 μL of droperidol was transferred to an assay plate according to the plate map for nonspecific binding (Low control: LC). 1 μL of DMSO was transferred to an assay plate according to the plate map for total binding (High control: HC). Following a plate map, 100 μL of the membrane stock solutions and radio ligand were added into the plate. The plates were sealed and shaken with 300 rpm.
as §1, with “the GF/B” for “the GF/C”
^3H trapped on filters were counted using Perkin Elmer MicroBeta2 Reader. Inhibition constants were calculated using the following equation: […]
The data was analyzed using Prism 5. The model used was “log(inhibitor) vs. response—Variable slope” to fit the data and calculate IC50. The IC50 was then converted to Ki using the following equation: Ki=IC50/(1+L/Kd), wherein L is the radioligand concentration in the reaction system; Kd is the affinity of radioligand to the receptor. As shown in Table Q Compound No. 7 has a lower affinity for D2 when compared to Compounds A-2, A-3, A-4, and A-5.

[1] = Human clearance and half-life projections (allometric scaling from monkey clearance); details: for T1/2 (h), projected human half-life: one-compartmental model, T1/2=0.693×(predicted Vd/predicted CL); for CL (mL/min/kg), projected human clearance: single species scaling from monkey clearance
Description: (§3) The biological activity of the compounds of the present disclosure may be determined utilizing projected human clearance (CL) and half-life in humans. An allometric scaling method, using a single species scaling from monkey clearance was used to project clearance. Human volume of distribution (Vd) was projected from animal Vd, adjusted for differences in plasma protein binding and assuming similar unbound Vd across species. Human half-life (T1/2) was calculated based on a one-compartmental model, using a relationship of T1/2=0.693×(predicted Vd/predicted CL).
as §3, with “An” for “The biological activity of the compounds of the present disclosure may be determined utilizing projected human clearance (CL) and half-life in humans. An”

male Wistar rats = experiment: SCORE EEG/EMG sleep-wake monitoring: sleep continuity, number of arousals, depth of sleep; format: in vivo, rat; details: for normalized EEG delta power (slow wave activity) during nonREM sleep / increase in sleep bout-length per hour relative to vehicle control / cumulative increase in Total Sleep Time (NREM+REM sleep) relative to baseline: CT-18, male Wistar rats; for reductions in the number of transitions from sleep to wake per hour relative to controls: CT-5, male Wistar rats; for cumulative increase in Total Sleep Time (NREM+REM sleep) relative to baseline: 30 hours post-treatment
Description: Example 30. Experimental Details and Methods for Determining Sleep Continuity, Number of Arousals, and Depth of Sleep
Treatment detail plots (see, e.g., FIGS. 1-10) depict pre- and post-treatment time series plot ±30 hours before and after treatment at CT-18 (6-hours after lights-off) or pre- and post-treatment time series plots 29 hr before and 31 hr after treatments at CT-5 (5-hours after lights-on). Treatment occurred at the beginning of the hour marked by a triangle on the abscissa of the plot. Variables were computed in hourly bins.
All data were plotted as group mean±SEM (see, e.g., FIGS. 1-10). The gray shaded area encompasses the vehicle treatment mean±SEM. Along the x-axis, time of treatment is marked by a triangle unless noted otherwise. Along the x-axis, light/dark bars indicate lights on/off.
Adult, male Wistar rats (approximately 270 g at time of surgery, Charles River Laboratories) were administered dexmedetomidine 25 μg/kg and anesthetized (2% isoflourane in 95/5 oxygen, to effect) and surgically prepared with a cranial implant that permitted chronic electro-encephalogram (EEG) and electromyogram (EMG) recording. Body temperature and locomotor activity were monitored via a miniature transmitter (Minimitter Series PDT4000 E-Mitter, Bend, Oreg.) surgically placed in the abdomen during the same anesthetic event when the cranial portion was implanted. The cranial implant consisted of miniature stainless steel screws (2 frontal [+3.9 AP from bregma, 2.0 ML], 2 occipital [−6.4 AP, 5.5 ML], and 1 ground placed sagittaly and posterior to lambda) for EEG recording. Two Teflon-coated multi-strand stainless steel wires were positioned under the nuchal trapezoid muscles for EMG recording. All leads were soldered to a miniature connector (Omnetics, Minneapolis, Minn.) and gas sterilized with ethylene oxide prior to surgery. The implant assembly was affixed to the skull by the combination of the EEG recording screws, cyanoacrylate applied between the hermetically sealed implant connector and skull, and a UV-curing dental acrylic. An analgesic (meloxicam 1 mg/kg IP) was administered 1 day prior to surgery and daily for 2 days post-surgery. Neosporin with lidocaine was applied topically to the peri-implant margin. At least three weeks were allowed for surgical recovery prior to any data collection.
Rats were housed individually within specially modified Innovive® cages equipped with a custom-built ultra-low-torque slip-ring commutator and a customized Innovive® polycarbonate cage-top. These cages were located on shelves of a modified stainless steel animal rack that was pre-wired for physiological and behavioral data collection. Food and water were available ad libitum and the ambient temperature was 22±1° C. A 24-hr light-dark cycle (LD 12:12) was maintained throughout the study using LED lighting strips. Light intensity averaged 35 lux at mid-level inside the cage. Relative humidity averaged 50% approximately. Animals were undisturbed for two days before and after each treatment.
Sleep and wakefulness were determined using SCORE™—a Linux and Windows-10 real-time computer-based sleep-wake and physiological monitoring system. Validation of the SCORE™ sleep stage identification algorithm in rodents and the system's utility in pre-clinical drug discovery and evaluation have been previously described (Edgar et al. Psychopharmacology 1991, 105, 374; Gilmour et al., Neuropharmacology 2012, 64, 224; McCarthy et al., 2016, Neuropharmacology 108, 415; Olive et al., J. Pharmacology &Experimental Therapeutics 1998 285, 1073; Phillips et al, Neuropharmacology 2012, 62, 1359; Seidel et al. J Pharmacology &Experimental Therapeutics 1995, 275, 263; Van Gelder et al. Sleep 1991, 14, 48). […]

5-HT2A = 5-HT2A (Homo sapiens (Human), UniProt P28223); experiment: 5-HT2A binding assay ([3H]-Ketanserin, HEK293 stable cell line membranes)
Sequence of 5-HT2A (P28223 whole entry, species assumed): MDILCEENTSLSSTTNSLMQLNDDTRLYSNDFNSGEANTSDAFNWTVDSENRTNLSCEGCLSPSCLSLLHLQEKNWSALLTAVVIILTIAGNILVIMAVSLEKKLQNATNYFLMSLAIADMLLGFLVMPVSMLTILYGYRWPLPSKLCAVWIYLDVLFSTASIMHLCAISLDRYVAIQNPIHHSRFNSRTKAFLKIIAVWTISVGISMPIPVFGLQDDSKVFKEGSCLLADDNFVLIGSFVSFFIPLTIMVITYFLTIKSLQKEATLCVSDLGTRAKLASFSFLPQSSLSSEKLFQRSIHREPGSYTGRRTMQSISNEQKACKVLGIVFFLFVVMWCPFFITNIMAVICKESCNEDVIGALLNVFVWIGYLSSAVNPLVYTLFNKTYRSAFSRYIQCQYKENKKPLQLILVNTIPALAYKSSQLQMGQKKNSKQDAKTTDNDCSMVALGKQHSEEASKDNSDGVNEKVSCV
Description: H1 and 5-HT2A Binding Assay Protocol
(§4) The testing compounds were diluted with DMSO, starting at 2 mM, with 8-points and 5-fold serial dilutions. Ketanserin and Pyrilamine were diluted with DMSO, starting at 0.2 mM, with 8-points and 5-fold serial dilution.
(§5) 1 μl of a compounds of the present disclosure and either reference compound (Table C) were transferred to assay plates. 1 μl of 0.2 mM Ketanserin or Pyrilamine was transferred to an assay plate according to the plate map for nonspecific binding (Low control: LC). 1 μl of DMSO was transferred to an assay plate according to plate map for total binding (High control: HC).
(§6) 100 μlof membrane stocks were dispensed into the plates, following the plate map. 100 of radio ligand was added. The plates were sealed and shaken at 300 rpm at room temperature for 1 hour. The Unifilter-96 GF/C filter plates were soaked with 50 of 0.3% PEI per well for at least 0.5 hour at room temperature.
as §1, with “When” for “Unifilter-96 GF/C filter plates were soaked with 50 μL of 0.3% PEI per well for about 0.5 hours at room temperature. When”, “through” for “through the”, “GF/C” for “GF/C filter”, “and then” for “and”, “50 degrees.” for “50° C.”, “μl” for “μL”
as §2
(§7) [formula] The data was analyzed using Prism 5. The model used was “log(inhibitor) vs. response—Variable slope” to fit the data and calculate IC50. The IC50 was then converted to Ki using following equation: Ki=IC50/(1+L/Kd). L is the radioligand concentration in the reaction system; Kd is the affinity of radioligand to the receptor.

H1 = H1 (Homo sapiens (Human), UniProt P35367); experiment: H1 binding assay ([3H]pyrilamine, HEK293 stable cell line membranes)
Sequence of H1 (P35367 whole entry): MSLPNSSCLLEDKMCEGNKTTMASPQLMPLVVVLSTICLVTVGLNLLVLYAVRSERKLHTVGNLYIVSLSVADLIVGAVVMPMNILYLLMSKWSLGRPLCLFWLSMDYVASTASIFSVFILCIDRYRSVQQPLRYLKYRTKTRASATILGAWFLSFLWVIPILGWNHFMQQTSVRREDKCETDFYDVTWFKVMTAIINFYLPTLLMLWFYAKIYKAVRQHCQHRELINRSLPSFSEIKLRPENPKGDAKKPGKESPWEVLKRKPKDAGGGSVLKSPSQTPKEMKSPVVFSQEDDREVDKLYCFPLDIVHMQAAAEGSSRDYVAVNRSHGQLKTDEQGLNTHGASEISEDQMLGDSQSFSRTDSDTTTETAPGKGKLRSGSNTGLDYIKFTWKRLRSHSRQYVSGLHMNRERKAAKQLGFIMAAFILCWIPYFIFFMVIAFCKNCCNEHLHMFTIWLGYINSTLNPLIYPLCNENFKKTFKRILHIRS
Description: Example 25. H1 and 5-HT2A Binding Assay Protocol
as §4, §5, §6
as §1, with “When” for “Unifilter-96 GF/C filter plates were soaked with 50 μL of 0.3% PEI per well for about 0.5 hours at room temperature. When”, “through” for “through the”, “GF/C” for “GF/C filter”, “and then” for “and”, “50 degrees.” for “50° C.”, “μl” for “μL”
as §2, §7

Sequence of 5-HT2C (P28335 33-458): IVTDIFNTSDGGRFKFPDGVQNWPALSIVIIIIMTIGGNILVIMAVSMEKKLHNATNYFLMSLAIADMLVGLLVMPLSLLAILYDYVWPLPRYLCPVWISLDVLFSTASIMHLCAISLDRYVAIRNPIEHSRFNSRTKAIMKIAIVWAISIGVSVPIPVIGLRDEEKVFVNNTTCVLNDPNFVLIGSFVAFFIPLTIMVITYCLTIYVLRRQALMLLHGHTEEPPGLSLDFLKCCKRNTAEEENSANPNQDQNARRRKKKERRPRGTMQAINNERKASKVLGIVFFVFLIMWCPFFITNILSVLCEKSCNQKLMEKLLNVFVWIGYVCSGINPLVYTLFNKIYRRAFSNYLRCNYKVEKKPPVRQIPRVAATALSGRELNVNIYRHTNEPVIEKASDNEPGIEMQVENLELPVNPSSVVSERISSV

SMILES | Ki (5-HT2C; numeric values) | Ki (D2) | Ki (5-HT2C; Table L, class symbols) | T1/2 (h), projected human half-life [1] | CL (mL/min/kg), projected human clearance [1] | Ki (5-HT2A; Table F, class symbols) | Ki (H1; Table E, class symbols) | other results
Cc1ccc2c(c1)Oc1ccc(C)cc1C(N1CCN(CC(C)(C)C(=O)O)CC1)=N2 [A-3, 3-(4-(2,7-dimethyldibenzo[b,f][1,4]oxazepin-11-yl)piperazin-1-yl)-2,2-dimethylpropanoic acid, reference compound] | 125 nM | 152 nM | – | – | – | – | – | –
CC(C)(CN1CCN(C2=Nc3ccccc3Cc3ccccc32)CC1)C(=O)O [Compound No. 8, 3-(4-(11H-dibenzo[b,e]azepin-6-yl)piperazin-1-yl)-2,2-dimethylpropanoic acid] | – | – | > 500 nM | 2 to 4 h | 1.8 mL/min/kg | > 50 nM | 25 to 50 nM | normalized EEG delta power (slow wave activity) during nonREM sleep (male Wistar rats; 3 mg/kg PO): increases in EEG slow wave activity in nonREM sleep; reductions in the number of transitions from sleep to wake per hour relative to controls (male Wistar rats; 10 mg/kg PO): up to 50%; increase in sleep bout-length per hour relative to vehicle control (male Wistar rats; 10 mg/kg PO): approximately 4 fold; cumulative increase in Total Sleep Time (NREM+REM sleep) relative to baseline (male Wistar rats; 30 mg/kg PO, listed as Compound 8): 70 min; cumulative increase in Total Sleep Time (NREM+REM sleep) relative to baseline (male Wistar rats; 30 mg/kg PO, listed as compound 8): approximately 70 minute; Ki (5-HT2A; numeric values): ~87 nM and 87 nM; Ki (H1; numeric values): 46 nM
CC(C)(CN1CCN(C2=Nc3ccccc3Cc3cc(F)ccc32)CC1)C(=O)O [Compound No. 37, 3-(4-(9-fluoro-11H-dibenzo[b,e]azepin-6-yl)piperazin-1-yl)-2,2-dimethylpropanoic acid] | – | – | > 500 nM | – | – | > 50 nM | > 50 nM | –
Cc1ccc2c(c1)N=C(N1CCN(CC(C)(C)C(=O)O)CC1)c1cc(C)ccc1O2 [A-2, 3-(4-(2,8-dimethyldibenzo[b,f][1,4]oxazepin-11-yl)piperazin-1-yl)-2,2-dimethylpropanoic acid, reference compound] | 265 nM | 60 nM | – | – | – | – | – | –
CC(C)(CN1CCN(C2=Nc3ccccc3Oc3ccccc32)CC1)C(=O)O [A-5, 3-(4-(dibenzo[b,f][1,4]oxazepin-11-yl)piperazin-1-yl)-2,2-dimethylpropanoic acid, reference compound] | 680 nM | 2870 nM | – | – | – | – | – | –
Cc1ccc2c(c1)Oc1cc(C(F)F)ccc1C(N1CCN(CC(C)(C)C(=O)O)CC1)=N2 [Compound No. 15, 3-(4-(3-(difluoromethyl)-7-methyldibenzo[b,f][1,4]oxazepin-11-yl)piperazin-1-yl)-2,2-dimethylpropanoic acid] | – | – | – | – | – | 1 to 25 nM | > 50 nM | reductions in the number of transitions from sleep to wake per hour relative to controls (male Wistar rats; 30 mg/kg PO): approximately 30%; increase in sleep bout-length per hour relative to vehicle control (male Wistar rats; 30 mg/kg PO): approximately 3 fold; normalized EEG delta power (slow wave activity) during nonREM sleep (male Wistar rats; 30 mg/kg PO): increases in EEG slow wave activity in nonREM sleep
CC(C)(CN1CCN(C2=Nc3ccccc3Oc3cc(C(F)F)ccc32)CC1)C(=O)O [Compound No. 36, 3-(4-(3-(difluoromethyl)dibenzo[b,f][1,4]oxazepin-11-yl)piperazin-1-yl)-2,2-dimethylpropanoic acid] | – | – | – | 14 to 50 h | 0.4 mL/min/kg | – | – | –
Cc1ccc2c(c1)Oc1cc(F)ccc1N=C2N1CCN(CC(C)(C)C(=O)O)CC1 [Compound No. 6, 3-(4-(7-fluoro-3-methyldibenzo[b,f][1,4]oxazepin-11-yl)piperazin-1-yl)-2,2-dimethylpropanoic acid] | – | – | > 500 nM | 12 to 25 h | 0.3 mL/min/kg | 1 to 25 nM | 1 to 25 nM | –
